Results reported in patent US10202361B2, “Pyridazinones as herbicides” (E I DU PONT DE NEMOURS AND COMPANY, priority 2014, dated 2019).
Like-named read-outs stand apart in the source and are kept apart here.

Key:
Assay type in all cases: in vivo
soybean (Glycine max) = assay: Test C pre-/postemergence greenhouse herbicide test; conditions: Glycine max, Soybean, read-out: Plant response rating; for plant injury at 31 g/ha: 31 g ai/ha; for plant injury at 62 g/ha: 62 g ai/ha; for plant injury at 125 g/ha: 125 g ai/ha; for plant injury at 250 g/ha: 250 g ai/ha
Source text: Seeds of plant species selected from blackgrass (Alopecurus myosuroides), bromegrass, downy (downy bromegrass, Bromus tectorum), foxtail, green (green foxtail, Setaria viridis), ryegrass, Italian (Italian ryegrass, Lolium multiflorum), wheat (winter wheat, Triticum aestivum), oat, wild (wild oat, Avena fatua), galium (catchweed bedstraw, Galium aparine), bermudagrass (Cynodon dactylon), surinam grass (Brachiaria decumbens), cocklebur (common cocklebur, Xanthium strumarium), corn (Zea mays), crabgrass, large (large crabgrass, Digitaria sanguinalis), cupgrass, woolly (woolly cupgrass, Eriochloa villosa), foxtail, giant (giant foxtail, Setaria faberii), goosegrass (Eleusine indica), johnsongrass (Sorghum halepense), kochia (Kochia scoparia), lambsquarters (Chenopodium album), morningglory (Ipomoea coccinea), nightshade (eastern black nightshade, Solanum ptycanthum), nutsedge, yellow (yellow nutsedge, Cyperus esculentus), pigweed (Amaranthus retroflexus), ragweed (common ragweed, Ambrosia elatior), soybean (Glycine max), sunflower (common oilseed sunflower, Helianthus annuus), Russian thistle (Salsola kali), barnyardgrass (Echinochloa crus-galli), oilseed rape (Brassica napus), waterhemp (common waterhemp, Amaranthus rudis), and velvetleaf (Abutilon theophrasti) were planted into a blend of loam soil and sand and treated preemergence with test chemicals formulated in a non-phytotoxic solvent mixture which included a surfactant.
(§1) At the same time, plants selected from these crop and weed species and also barley (winter barley, Hordeum vulgare), canarygrass (Phalaris minor), windgrass (Apera spica-venti), deadnettle (henbit deadnettle, Lamium amplexicaule), and chickweed (common chickweed, Stellaria media) were planted in pots containing Redi-Earth® planting medium (Scotts Company, 14111 Scottslawn Road, Marysville, Ohio 43041) comprising spaghnum peat moss, vermiculite, wetting agent and starter nutrients and treated with postemergence applications of test chemicals formulated in the same manner. Plants ranged in height from 2 to 18 cm (1- to 4-leaf stage) for postemergence treatments. Treated plants and controls were maintained in a greenhouse for 13 to 15 d, after which time all species were compared to controls and visually evaluated. Plant response ratings, summarized in Table C, are based on a scale of 0 to 100 where 0 is no effect and 100 is complete control. A dash (-) response means no test result.

[1] = system: pigweed (Amaranthus retroflexus); assay: Test A pre-/postemergence greenhouse herbicide test; conditions: Amaranthus retroflexus, 240 h, 0 to 100 scale (0 no effect, 100 complete control), approx. 10 d, read-out: Plant response rating, Pigweed; for pest or weed control at 125 g/ha: 125 g ai/ha; for pest or weed control at 500 g/ha: 500 g ai/ha
Outline: (§2)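 Injury was scored visually on a 0–100 scale (100 = complete control) about 10 d after spraying, relative to untreated plants. Compounds were formulated in solvent plus surfactant and applied as soil spray preemergence or to 2–10 cm, one- to two-leaf seedlings postemergence.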

[2] = system: crabgrass, Large (large crabgrass, Digitaria sanguinalis); assay: as above; conditions: Digitaria sanguinalis, 240 h, 0 to 100 scale (0 no effect, 100 complete control), approx. 10 d, read-out: Plant response rating, Crabgrass, Large; for pest or weed control at 125 g/ha: 125 g ai/ha; for pest or weed control at 500 g/ha: 500 g ai/ha
Outline: as §2

[3] = system: barnyardgrass (Echinochloa crus-galli); assay: as above; conditions: Echinochloa crus-galli, 240 h, 0 to 100 scale (0 no effect, 100 complete control), approx. 10 d, read-out: Plant response rating, Barnyardgrass; for pest or weed control at 125 g/ha: 125 g ai/ha; for pest or weed control at 500 g/ha: 500 g ai/ha
Outline: as §2

corn (Zea mays) = assay: as above; conditions: Zea mays, 240 h, 0 to 100 scale (0 no effect, 100 complete control), approx. 10 d; for Corn plant response rating (crop injury, 0 = no effect, 100 = complete kill) at 125 g/ha: 125 g ai/ha; for Corn plant response rating (crop injury, 0 = no effect, 100 = complete kill) at 500 g/ha: 500 g ai/ha
Outline: as §2

[4] = system: wheat (Triticum aestivum); assay: as above; conditions: Triticum aestivum, 240 h, 0 to 100 scale (0 no effect, 100 complete control), approx. 10 d, read-out: Plant response rating, Wheat; for plant injury at 125 g/ha: 125 g ai/ha; for plant injury at 500 g/ha: 500 g ai/ha
Outline: as §2

[5] = system: velvetleaf (Abutilon theophrasti); assay: as above; conditions: Abutilon theophrasti, 240 h, 0 to 100 scale (0 no effect, 100 complete control), approx. 10 d, read-out: Plant response rating, Velvetleaf; for pest or weed control at 125 g/ha: 125 g ai/ha; for pest or weed control at 500 g/ha: 500 g ai/ha
Outline: as §2

[6] = system: foxtail, giant (giant foxtail, Setaria faberii); assay: as above; conditions: Setaria faberi, 240 h, 0 to 100 scale (0 no effect, 100 complete control), approx. 10 d, read-out: Plant response rating, Foxtail, Giant; for pest or weed control at 125 g/ha: 125 g ai/ha; for pest or weed control at 500 g/ha: 500 g ai/ha
Outline: as §2

[7] = system: chickweed (common chickweed, Stellaria media); assay: Test C postemergence greenhouse herbicide test
Source text: as §1

Structure (SMILES) | plant injury at 31 g/ha (soybean (Glycine max); post-emergence, Postemergence) | plant injury at 62 g/ha (soybean (Glycine max); post-emergence, Postemergence) | plant injury at 125 g/ha (soybean (Glycine max); post-emergence, Postemergence) | plant injury at 250 g/ha (soybean (Glycine max); post-emergence, Postemergence) | plant injury at 62 g/ha (soybean (Glycine max); pre-emergence, Preemergence) | plant injury at 125 g/ha (soybean (Glycine max); pre-emergence, Preemergence) | plant injury at 250 g/ha (soybean (Glycine max); pre-emergence, Preemergence) | pest or weed control at 125 g/ha ([1]; post-emergence, Postemergence) | pest or weed control at 500 g/ha ([1]; post-emergence, Postemergence) | pest or weed control at 125 g/ha ([1]; pre-emergence, Preemergence) | pest or weed control at 500 g/ha ([1]; pre-emergence, Preemergence) | pest or weed control at 125 g/ha ([2]; post-emergence, Postemergence) | pest or weed control at 500 g/ha ([2]; post-emergence, Postemergence) | pest or weed control at 125 g/ha ([2]; pre-emergence, Preemergence) | pest or weed control at 500 g/ha ([2]; pre-emergence, Preemergence) | pest or weed control at 125 g/ha ([3]; post-emergence, Postemergence) | pest or weed control at 500 g/ha ([3]; post-emergence, Postemergence) | pest or weed control at 125 g/ha ([3]; pre-emergence, Preemergence) | pest or weed control at 500 g/ha ([3]; pre-emergence, Preemergence) | Corn plant response rating (crop injury, 0 = no effect, 100 = complete kill) at 125 g/ha (corn (Zea mays); post-emergence, Postemergence) | also measured
Cc1cc(=O)n(-c2ccc(F)cc2)nc1Cc1ccnc(C(F)(F)F)c1 [Compound 1, 2-(4-fluorophenyl)-5-methyl-6-[[2-(trifluoromethyl)-4-pyridinyl]methyl]-3(2H)-pyridazinone] | 35% | 40% | 50% | 70% | 60% | 95% | 98% | 100% | 100% | 100% | 100% | 90% | 100% | 100% | 100% | 100% | 100% | 100% | 100% | 90% | Corn plant response rating (crop injury, 0 = no effect, 100 = complete kill) at 500 g/ha (corn (Zea mays); post-emergence, Postemergence): 90%; Corn plant response rating (crop injury, 0 = no effect, 100 = complete kill) at 125 g/ha (corn (Zea mays); pre-emergence, Preemergence): 0%; Corn plant response rating (crop injury, 0 = no effect, 100 = complete kill) at 500 g/ha (corn (Zea mays); pre-emergence, Preemergence): 90%; plant injury at 125 g/ha ([4]; post-emergence, Postemergence): 60%; plant injury at 500 g/ha ([4]; post-emergence, Postemergence): 90%; plant injury at 125 g/ha ([4]; pre-emergence, Preemergence): 0%; plant injury at 500 g/ha ([4]; pre-emergence, Preemergence): 90%; pest or weed control at 125 g/ha ([5]; post-emergence, Postemergence): 40%; pest or weed control at 500 g/ha ([5]; post-emergence, Postemergence): 100%; pest or weed control at 125 g/ha ([5]; pre-emergence, Preemergence): 0%; pest or weed control at 500 g/ha ([5]; pre-emergence, Preemergence): 90%; pest or weed control at 125 g/ha ([6]; post-emergence, Postemergence): 90%; pest or weed control at 500 g/ha ([6]; post-emergence, Postemergence): 100%; pest or weed control at 125 g/ha ([6]; pre-emergence, Preemergence): 100%; pest or weed control at 500 g/ha ([6]; pre-emergence, Preemergence): 100%; Plant response rating ([7]; 31 g ai/ha): 40; Plant response rating ([7]; 62 g ai/ha): 45; Plant response rating ([7]; 125 g ai/ha): 60; Plant response rating ([7]; 250 g ai/ha): 90
Cc1cc(=O)n(-c2ccc(C(F)(F)F)cc2)nc1Cc1ccnc(C(F)(F)F)c1 [Compound 2, 5-methyl-2-[4-(trifluoromethyl)phenyl]-6-[[2-(trifluoromethyl)-4-pyridinyl]methyl]-3(2H)-pyridazinone] | 20% | 30% | 40% | 40% | 25% | 55% | 60% | 90% | 100% | 100% | 100% | 80% | 100% | 100% | 100% | 80% | 90% | 80% | 100% | 70% | Corn plant response rating (crop injury, 0 = no effect, 100 = complete kill) at 500 g/ha (corn (Zea mays); post-emergence, Postemergence): 90%; Corn plant response rating (crop injury, 0 = no effect, 100 = complete kill) at 125 g/ha (corn (Zea mays); pre-emergence, Preemergence): 30%; Corn plant response rating (crop injury, 0 = no effect, 100 = complete kill) at 500 g/ha (corn (Zea mays); pre-emergence, Preemergence): 50%; plant injury at 125 g/ha ([4]; post-emergence, Postemergence): 40%; plant injury at 500 g/ha ([4]; post-emergence, Postemergence): 80%; plant injury at 125 g/ha ([4]; pre-emergence, Preemergence): 0%; plant injury at 500 g/ha ([4]; pre-emergence, Preemergence): 40%; pest or weed control at 125 g/ha ([5]; post-emergence, Postemergence): 50%; pest or weed control at 500 g/ha ([5]; post-emergence, Postemergence): 100%; pest or weed control at 125 g/ha ([5]; pre-emergence, Preemergence): 20%; pest or weed control at 500 g/ha ([5]; pre-emergence, Preemergence): 50%; pest or weed control at 125 g/ha ([6]; post-emergence, Postemergence): 80%; pest or weed control at 500 g/ha ([6]; post-emergence, Postemergence): 100%; pest or weed control at 125 g/ha ([6]; pre-emergence, Preemergence): 100%; pest or weed control at 500 g/ha ([6]; pre-emergence, Preemergence): 100%; Plant response rating ([7]; 31 g ai/ha): 60; Plant response rating ([7]; 62 g ai/ha): 70; Plant response rating ([7]; 125 g ai/ha): 90; Plant response rating ([7]; 250 g ai/ha): 90
